Here are results for two molecules from US10093695B2, “Sterol derivative, preparation method therefor and use thereof” (Beijing Peking University WBL Biotech Co., Ltd., priority 2012, dated 2018).

The test system of assay [1] is human mononuclear lymphoma cells THP1. Nature of the assay: In-vitro anti-lymphoma activity, MTT cell growth inhibition, THP1. It is filed as cell-based. Conditions: THP-1, human mononuclear lymphoma cells THP1, 72 hours. The protocol:
(§1) Inoculatecancer cells in the logarithmic phase in each well of a 96-well culture plate (2×10^4 cells/well); add the drugs until the final concentrations of the drugs are 500, 250, 125, 62.5, 31.25, 15.625 and 7.8125 μg/mL, after culturing the cancer cells for 72 hours in a cell incubator with a CO2 concentration of 5%, add 10 μL of MTT to each well, incubate the cancer cells at 37° C. in darkness for 4 hours, remove the culture solution, add 150 μL of Dimethyl Sulfoxide (DMSO) or acidified isopropyl alcohol, after oscillating for 5 minutes, measure the Optical Density (OD) value at a wavelength of 570 nm; repeat the steps above for three times; set a blank control group; the cell lines use the same culture medium, which is a RPMI1640 culture medium containing 10% of FBS and 1% of double-antibody (penicillin and streptomycin).
(§2) 3. Calculation Formula of Cell Viability Cell viability=(experimental group OD value/control group OD value)×100%.
FIG. 13 is a curve of inhibitory effect of a compound with Structural Formula (II) prepared in the first embodiment on cell growth of human mononuclear lymphoma cells THP1. […]

Assay [2] addresses T1, HMG-CoA reductase (Rattus norvegicus, UniProt P51639).
T1 construct: take out a male rat liver, after washing the male rat liver with a KESD buffer solution; from tissue; host or cells: male rat liver microsomes
T1 sequence (P51639 1-887): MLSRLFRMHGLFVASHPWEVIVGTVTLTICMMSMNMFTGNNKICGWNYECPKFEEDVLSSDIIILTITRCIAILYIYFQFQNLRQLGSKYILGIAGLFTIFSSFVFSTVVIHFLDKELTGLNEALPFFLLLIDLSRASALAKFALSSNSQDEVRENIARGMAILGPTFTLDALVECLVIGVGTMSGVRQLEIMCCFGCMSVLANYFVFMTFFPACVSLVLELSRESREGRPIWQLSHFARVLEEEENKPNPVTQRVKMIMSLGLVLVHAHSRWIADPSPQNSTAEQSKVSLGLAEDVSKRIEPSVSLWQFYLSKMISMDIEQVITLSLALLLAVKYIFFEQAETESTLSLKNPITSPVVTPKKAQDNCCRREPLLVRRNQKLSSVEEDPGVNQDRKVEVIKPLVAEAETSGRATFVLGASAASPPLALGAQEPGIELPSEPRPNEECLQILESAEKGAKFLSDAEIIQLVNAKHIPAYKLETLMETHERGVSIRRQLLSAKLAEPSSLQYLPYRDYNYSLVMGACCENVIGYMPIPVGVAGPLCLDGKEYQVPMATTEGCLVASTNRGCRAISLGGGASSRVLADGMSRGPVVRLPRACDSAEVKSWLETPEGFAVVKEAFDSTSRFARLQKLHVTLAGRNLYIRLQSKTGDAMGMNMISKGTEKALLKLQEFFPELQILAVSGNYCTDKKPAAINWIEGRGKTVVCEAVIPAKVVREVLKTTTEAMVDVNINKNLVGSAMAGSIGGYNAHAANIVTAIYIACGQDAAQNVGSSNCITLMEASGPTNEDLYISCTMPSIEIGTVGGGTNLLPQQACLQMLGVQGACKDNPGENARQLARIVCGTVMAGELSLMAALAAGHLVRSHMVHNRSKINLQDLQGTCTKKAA
In words: HMG-CoA reductase inhibitory activity experiment (OD340 decrease, rat liver microsomes). Conditions: for Slope: decreasing speed of OD340 within 5 minutes, 37° C., blank control slope 15.6. It is filed as biochemical. The protocol:
Rat liver microsomes (HMG-CoA reductase) that may be commercially available or prepared with reference to the following method: take out a male rat liver, after washing the male rat liver with a KESD buffer solution, perform 1200 g centrifugation for 15 minutes, take the supernatant, after performing 105000 g centrifugation again for 90 minutes twice, collect centrifugation sediments, add 8.3% glycerol to the centrifugation sediments, heating for 1 hour with a 37° C. warm bath, purify coarse rat liver microsomes with saturated ammonium sulfate, and collect 35-50% of the purified part. The obtained purified part may be stored in a refrigerator at −80° C.
Dissolve 5.0 mg of the compound with Structural Formula (II) prepared in the first embodiment, Compound 4 or Compound 5, and 2.0 mg of lovastatin with 1 mL of a 75% ethanol solution, respectively;
the total volume of measurement system is 250 μL and the concentrations of the constituents are: potassium chloride 200 mM, potassium dihydrogen phosphate 160 mM, ethylenediaminetetraacetic acid 4 mM and dithiothreitol 10 mM; the concentrations of two substrates NADPH and HMG-CoA are respectively 200 μM and 50 μM, pH6.8, enzyme 30 μL.
Add an ethanol solution with 5 μL of the compound prepared by the first embodiment or an ethanol solution of Compound 4 or an ethanol solution of Compound 5 to a test group, add 5 μL of a lovastatin ethanol solution to a positive control group; add 5 μL of 75% ethanol to a blank control group; detect dynamic change of OD340 on a Versamax microplate reader at 37° C., and evaluate the HMG-CoA reductase activity level by detecting the decreasing speed (represented by a slope value) of OD340 within 5 minutes to further evaluate the enzyme inhibitory activity level, the result is as shown in Table 1.
(Liver microsomes are a subcellular fraction often used to study metabolism.)

For assay [3], the system named is mouse hepatoma cell line HepG2. Nature of the assay: In-vitro anti-hepatoma activity, MTT cell growth inhibition, HepG2. It is filed as cell-based. Conditions: mouse hepatoma cell line HepG2, 72 hours. The protocol:
as §1, §2
FIG. 10 is curve of inhibitory effect of a compound with Structural Formula (II) prepared in the first embodiment on cell growth of […] hepatoma cell line HepG2. […]

Assay [4] deals with mouse lymphoma cells YAC-1. Nature of the assay: In-vitro anti-lymphoma activity, MTT cell growth inhibition, YAC-1. It counts as cell-based. Conditions: mouse lymphoma cells YAC-1, 72 hours. The protocol:
as §1, §2
FIG. 12 is a curve of inhibitory effect of a compound with Structural Formula (II) prepared in the first embodiment on cell growth of mouse lymphoma cells YAC-1.

The test system of assay [5] is mouse sarcoma cell line S180. In words: In-vitro anti-cancer activity, MTT cell growth inhibition, S180. It is filed as cell-based. Conditions: S-180, mouse sarcoma cell line S180, 72 hours. The protocol: as §1, §2
FIG. 11 is a curve of inhibitory effect of a compound with Structural Formula (II) prepared in the first embodiment on cell growth of mouse sarcoma cell line S180.

Assay [6] relates to mouse hepatoma cell line H22. In words: In-vitro anti-hepatoma activity, MTT cell growth inhibition, H22. It is filed as cell-based. Conditions: mouse hepatoma cell line H22, 72 hours, read-out: half maximal inhibitory concentration (IC50) value. The protocol: as §1, §2
FIG. 9 is a curve of inhibitory effect of a compound with Structural Formula (II) prepared in the first embodiment on cell growth of mouse hepatoma cell line H22. […]

Assay [7] concerns human tissue lymphoma cells U937. Nature of the assay: In-vitro anti-lymphoma activity, MTT cell growth inhibition, U937. It is filed as cell-based. Conditions: U-937, human tissue lymphoma cells U937, 72 hours. The protocol:
as §1, §2

Where [8] appears, read: final concentration in the system 100 μg/mL.
[9] abbreviates: final concentration in the system 40 μg/mL.

Turning to `C[C@@H](C(O)C1OC2C[C@@H]3[C@](C)(CC[C@H]4[C@@]35C=CC3(CC(O)CC[C@]43C)OO5)[C@H]2[C@@]1(C)O)C(C)(C)O` (stereo partly shown) [Compound with Structural Formula (II), 5,8-epidioxy-16,22-epoxy-ergosta-6-en-3,20,23,25-tetrol], the IC50 in assay [1] was around 400 µg/mL; in assay [3] it was around 400 µg/mL; in assay [4] it was around 350 µg/mL; in assay [5], around 460 µg/mL; in assay [6], around 200 µg/mL; in assay [7], around 320 µg/mL. The molecule further showed a Slope in assay [2] (setting [8]) of 10.7. Further, in assay [2] (setting [8]), the “Inhibitory rate (%)” value is 31.4%.
Turning to `CC[C@H](C)C(=O)O[C@H]1C[C@@H](C)C=C2C=C[C@H](C)[C@H](CC[C@@H]3C[C@@H](O)CC(=O)O3)[C@H]21` [Lovastatin, lovastatin, reference compound], in assay [2] (setting [9]), the Slope was found to be 9.0 and the “Inhibitory rate (%)” value came out at 42.3%.
